Paper PMC10619691, “Effect of cyclic substituents on the anti-cancer activity and DNA interaction of ruthenium(II) bis-phenanthroline dipyridoquinoline” (Frontiers in Molecular Biosciences, 2023)

Assays:
various cell lines = assay: epi-fluorescence nuclear staining (nuclear morphology); assay type: cell-based; conditions: 72 h treatment, DAPI staining; cisplatin at 5 μM
Procedure: To assess the nuclear morphological changes caused by ruthenium complexes on the cell lines, the cells were stained using 4′,6-diamidino-2-phenylindole DAPI dye and analyzed under an EVOS epi-fluorescence microscope at a magnification of ×60 ([Lewandowska et al., 2013]). The protocol involves treating the cells with the complexes, culturing them in 6-well plates, and incubating them at 37°C for 72 h. The cells were then rinsed with PBS, trypsinized, and neutralized using culture media. The cells were then spun in a centrifuge at 2500 RPM for 3 min, and the supernatant was discarded. The cell pellet was then fixed with 15 μL of Carnoy’s solution, resuspended, and spread on a microscope slide. When the cells were dried, 2–3 drops of DAPI were dropped on the smear in the dark and covered with a slip. The slides were then viewed under the epi-fluorescence microscope, and the nuclei were characterized qualitatively. A total of 30 cells per slide were counted, and the number of cells with various nuclear morphologies was recorded. Cells were then classed as normal, chromatin-condensed, swollen, nuclear-condensed, and nuclear-fragmented cells based on their nuclear morphology.

DU145 cells = assay: cell cycle analysis; assay type: cell-based, human; conditions: DU145, after 72 h; control 1%
Procedure: (§1) The cell cycle of cervical HeLa and prostate DU145 cancer cells was studied after treatment with VNK-572 and cisplatin, respectively (Figure 3). VNK-572 and cisplatin both reduced the G2 population after 72 h compared to control (e.g., 16%–11% in Hela (p = 0.06) and from 17% to 2% in the DU145 cell line (p = 0.003) for VNK-572) (Figure 3A). […] The DU145 cells saw a decrease in both phases following 72 h of treatment—from 68% to 40% and from 11% to 5% for the G1 and S phases, respectively (Figure 3A).

HeLa cells [1] = assay: cell cycle analysis; assay type: cell-based, human
Procedure: as §1

HeLa cells [2] = assay: Annexin V apoptosis assay; assay type: cell-based, human
Procedure: To further analyze the cytotoxicity mechanisms, annexin V was used to determine whether VNK-572/cisplatin exerts an anti-cancer activity through apoptosis. The Annexin V assay was performed following the established procedure. The steps included treating the cells with the complex for 24, 48, and 72 h in 6-well plates and incubating at 37°C. The cells were then rinsed with PBS, trypsinized, and neutralized using culture media. The cells were then spun in the centrifuge at 2500 RPM for 3 min, and the supernatant was discarded. The cell pellet was then washed first with PBS and then with ×1 binding buffer. The cells were then suspended in approximately 1 mL of binding buffer (1–5 million cells), and approximately 100 ul of this suspension was stained with 5 μL of annexin V-APC dye for 15 min. The cells were then washed with binding buffer and resuspended in 200 μL of binding buffer before being stained with 5 ul of propidium iodide. The cells were then analyzed using a flow cytometer within 4 h.

MDA-MB-231 (TNBC) = assay: sulphorhodamine B (SRB) cytotoxicity assay; assay type: cell-based, human; conditions: 72 h incubation, mean ± SEM
Procedure: (§2) The cytotoxicity profile of the ruthenium complexes […]-572, and POW-12A was assessed in various cancer cell lines, namely, human cervical cancer HeLa, prostate cancer cell line DU145, breast cancer cell line MDAMB231MB231, ovarian cancer cell line A2780, and cisplatin-resistant ovarian cancer cell line A2780-CP70, using the preferred screen of the National Cancer Institute, the sulphorhodamine (SRB) dye assay, and the trypan blue cell viability assay ([Skehan et al., 1990]; [Houghton et al., 2007]; [Strober, 2001]). To determine their selective toxicity profile, these complexes were also tested in a normal prostate cell line (PTN1A). From the similarity in chemical structures of the compounds, we deduced that a structure-activity relationship study will help elucidate key properties involved in the cytotoxic activity of this class of metal complexes. The sulphorhodamine B (SRB) assay was used to evaluate the cytotoxicity of each cancer line after treating them with the metal complexes in line with the previously established protocol ([Skehan et al., 1990]). A cell density of 3 × 10^4 cells/mL was treated with various concentrations (3, 10, 30, 50, and 100 μM) of each ruthenium complex by 1:200 dilutions of stock solutions (in DMSO) in culture media, using DMSO as a control. Then, 100 μL of the cell-drug suspension was added to the respective wells of a 96-well plate and incubated at 37°C for 72 h in a CO2-containing incubator. Following this, the cells were fixed using 25 ul of Carnoy's solution and left in the fridge (4°C) for 1 h. The plates were then rinsed with running water and tapped on paper to remove dead cells. The cells were then stained with 100 μL of sulphorhodamine B dye and left for 30 min, after which the dye was washed off using 1% acetic acid, and the plate was left to dry in the oven (60°C). The stained cells were then treated with 100 μL of Tris base (10 mM, pH 10) to solubilize the dye stain. Finally, the plates were analyzed using an Omega plate reader. Each assay was conducted in triplicate. % Cell response=Average of treated cells / Average of control cells x 100.

HeLa cervical cancer = assay: sulphorhodamine B (SRB) cytotoxicity assay; assay type: cell-based, human; conditions: 72 h incubation, mean ± SEM
Procedure: as §2

[3] = system: A280-CP70 cisplatin-resistant ovarian cancer; assay: sulphorhodamine B (SRB) cytotoxicity assay; assay type: cell-based, human; conditions: for IC50: SRB assay, 72 h incubation, mean ± SEM
Procedure: as §2

PNT1A normal prostate = assay: sulphorhodamine B (SRB) cytotoxicity assay; assay type: cell-based, human; conditions: SRB assay, 72 h incubation; mean ± SEM
Procedure: as §2

A2780 ovarian cancer = assay: sulphorhodamine B (SRB) cytotoxicity assay; assay type: cell-based, human; conditions: SRB assay, 72 h incubation; mean ± SEM
Procedure: as §2

DU145 prostate cancer = assay: sulphorhodamine B (SRB) cytotoxicity assay; assay type: cell-based, human; conditions: 72 h incubation, mean ± SEM
Procedure: as §2

HeLa cells [4] = assay: cellular localization by confocal fluorescence microscopy; assay type: cell-based, human; conditions: 50 μM, 2 h incubation, co-localization with DAPI
Procedure: This was further confirmed by the co-localization of these complexes with a nuclear counterstain (DAPI) (Figure 2).
Fluorescence microscopy was used to study cellular localization. HeLa cells were seeded on autoclaved coverslips in the 6-well plate and incubated at 37°C for 48 h, after which the culture media were replaced with media containing VNK-572 (50 μM) and VNK-754 (50 μM), respectively, and further incubation was performed for 2 h. Following this, the cells were fixed with Carnoy’s solution and washed twice with PBS thereafter. Finally, the HeLa cells were counterstained with DAPI, and the seeded coverslips were inverted and placed on slides for examination. A Leica confocal microscope was used for the observation of the samples using a magnification of ×63.

[5] = partition coefficient (log P), shake-flask method; assay type: physicochemical; conditions: phosphate buffered saline (pH 7.4) / 1-octanol
Excerpt: The role of lipophilicity in the activity of ruthenium (II) polypyridyl complexes is one that has been extensively reported ([Notaro and Gasser, 2017]). […] Based on this, we carried out a partition coefficient (log P) test using a shake-flask method to determine whether the marginal structural differences between VNK-754, VNK-572, and POW-12A affect their lipophilicity and to examine whether such a difference in lipophilicity confers any advantage to their anti-cancer activity. The log P results, as presented in Table 2, clearly show VNK-572 (0.014) and POW-12A (0.077) to be more lipophilic than VNK-754 (−0.874). […] Thus, along with varied DNA intercalating properties, this explains, in part, why there are appreciable differences in the cytotoxic effects of VNK572 and POW12A compared to VNK-754, even though they are generally similar in structure. For example, VNK-572 with an additional benzene ring can penetrate the bi-lipid-layered cell membrane better and achieve higher cellular and nuclear concentrations than VNK-754, producing a greater anti-tumor effect.
To study the lipophilicity of our complexes, we used the shake-flask method at 25.0 °C ± 0.1°C in line with the previously reported protocol ([Dubey et al., 2017]). Equal volumes of the aqueous phase (phosphate buffered saline, pH 7.4) and the 1-octanol phase were pre-saturated with each other overnight. A known amount of the complexes (respectively) was added to the aqueous phase, ensuring our final concentration was within the range of UV spectroscopic analysis; then, an equal volume of the pre-saturated […] phase was added. Both phases were then mixed in a conical flask and left shaking on a thermostatic shaker at a speed of 100 rpm overnight at room temperature. […] Considering that lipophilic compounds will partition into the octanol phase, the concentration of the complexes left in the aqueous phase was analyzed, respectively, by UV spectroscopy; then, the Log P value was calculated: Logp = Log10 ([solute] un-ionized octanol/[solute] un-ionized water).

[6] = system: RF I φX174 supercoiled circular DNA; assay: supercoiled DNA unwinding by atomic force microscopy; assay type: binding; conditions: AFM; P/D = 14 for POW-12A and VNK-572, P/D = 5 for VNK-754
Procedure: FIGURE 7 AFM height images RF I φX174 on a magnesium-soaked mica surface over an area of 2 µm. Samples with the ruthenium complex had solution mixing ratios of P/D = 14 for POW-12A and VNK-572; and of P/D = 5 VNK-754.
Samples for atomic force microscopy (AFM) were prepared on mica crystals cut into squares of approximately 1 cm^2. These squares were stuck with double-sided tape to a 15-mm diameter metal disc. Before sample preparation, Cellotape was used to remove the top layer of the mica crystal, giving a freshly cleaved surface layer on which the sample is to be deposited. Mica was soaked in a 0.1 M solution of MgCl2 for 5 min and blown dry, and Mg^2+ was used to help DNA (negatively charged) adhere to the negatively charged surface of the mica. For solutions containing DNA and POW-12A or VNK-572, a P/D value of 14 was used. For the solution containing DNA and VNK-754, a P/D value of 5 was used. Then, 2 μL of the solution was pipetted onto the mica surface and left for 10 min until the solvent had evaporated, leaving the DNA adhered to the surface. To remove excess salt, each sample was washed three times with 10 µL nanopure water, drying with nitrogen after each wash. AFM was conducted using a Bruker Multi-mode 2 atomic force microscope operated with a NanoScope V controller. ScanAsyst-AIR AFM tips were purchased from Bruker. Scans were run in tapping mode using ScanAsyst, measuring height, peak force error, and phase. The spring constant was adjusted to the spring constant of the tip, which is 0.4 N m^−1 for ScanAsyst-AIR tips; feedback parameters were set automatically by ScanAsyst Auto. Scans were run over 2 μm^2 areas with 512 lines. Images were prepared using NanoScope analysis software. Raw data were processed using first-order flattening and third-order plane fitting. If the background required smoothening due to large molecules on the surface, first-order flattening with a threshold of Z < 0.05 nm was used to improve the appearance of the background. […]

LogP [5]	Structure (SMILES)	nuclear morphology (various cell lines)	sub-G1 population (DU145 cells) [%]	changes in G1 / S phases (HeLa cells [1])	sub-G1 population (HeLa cells [1]; 72 h of treatment, control 5% (VNK-572), 6% (cisplatin)) [%]	Q2 (propidium iodide and annexin V APC-stained cells), late-stage apoptosis (HeLa cells [2]; 72 h of treatment, control 2%) [%]	Q4 (annexin V APC), early apoptosis (HeLa cells [2]; 72 h of treatment, control 14% (VNK-572), 13% (cisplatin)) [%]	Q1 (necrosis) (HeLa cells [2]; after 72 h of treatment) [%]	IC50 (MDA-MB-231 (TNBC)) [µM]	IC50 (HeLa cervical cancer) [µM]	IC50 [3] [µM]	resistance factor (IC50 A2780-CP70/IC50 A2780) ([3]; from SRB IC50 values)	IC50 (PNT1A normal prostate) [µM]	IC50 (A2780 ovarian cancer) [µM]	IC50 (DU145 prostate cancer) [µM]	cellular localization (HeLa cells [4])	unwinding of supercoiled circular DNA [6]
–	N.N.[Cl][Pt][Cl] [Cisplatin, cisplatin, reference compound]	nuclear swelling	62	increase in S-phase arrest	25	9	39	< 6	37 ± 8.08	6 ± 0.58	4 ± 0.58	two-fold	3.8 ± 0.58	2	2.4 ± 0.09	–	–
−0.874	F[P-](F)(F)(F)(F)F.F[P-](F)(F)(F)(F)F.[Ru+2].c1cnc2c(c1)c1cccnc1c1ncccc21.c1cnc2c(c1)ccc1cccnc12.c1cnc2c(c1)ccc1cccnc12 [VNK-754, ruthenium (II) bis-phenanthroline dipyridoquinoline]	–	–	–	–	–	–	–	> 100	> 100	> 100	–	> 100	74 ± 14.4	> 100	penetrate the nucleus	unwound
